Key:
Format in all cases: biochemical
Fms = biological target: T1, Fms (Homo sapiens, UniProt P07333); assay: AlphaScreen kinase assay, Fms; details: read-out: IC50, activity toward kinase Fms
T1 construct: purchased Upstate Biotechnology

B-Raf V600E = biological target: T2, B-Raf V600E (Homo sapiens, UniProt P15056, V600E); assay: AlphaScreen kinase assay, B-Raf V600E; details: read-out: IC50, activity toward kinase B-Raf V600E
T2 construct: P4254. pFastBacBD-CDC37 BRAF D437-K722-X, V600E; His6 with pFastBac HT leader (TEV site) (N); made in house; host or cells: Sf9 (baculovirus; chaperone CDC37 co-expressed)
T2 sequence (P15056 with tags, fused parts or gaps V600E): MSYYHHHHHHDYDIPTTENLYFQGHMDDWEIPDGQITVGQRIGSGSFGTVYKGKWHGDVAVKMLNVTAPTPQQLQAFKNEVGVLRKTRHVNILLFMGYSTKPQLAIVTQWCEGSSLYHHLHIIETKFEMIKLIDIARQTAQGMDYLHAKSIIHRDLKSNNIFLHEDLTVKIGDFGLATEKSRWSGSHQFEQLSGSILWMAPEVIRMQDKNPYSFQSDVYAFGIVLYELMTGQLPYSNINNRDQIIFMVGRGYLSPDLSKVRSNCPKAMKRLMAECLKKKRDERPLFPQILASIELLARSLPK

B-Raf = biological target: T3, B-Raf (Homo sapiens, UniProt P15056); assay: AlphaScreen kinase assay, B-Raf; details: read-out: IC50, activity toward kinase B-Raf
T3 construct: purchased Upstate Biotechnology
T3 sequence (P15056 whole entry): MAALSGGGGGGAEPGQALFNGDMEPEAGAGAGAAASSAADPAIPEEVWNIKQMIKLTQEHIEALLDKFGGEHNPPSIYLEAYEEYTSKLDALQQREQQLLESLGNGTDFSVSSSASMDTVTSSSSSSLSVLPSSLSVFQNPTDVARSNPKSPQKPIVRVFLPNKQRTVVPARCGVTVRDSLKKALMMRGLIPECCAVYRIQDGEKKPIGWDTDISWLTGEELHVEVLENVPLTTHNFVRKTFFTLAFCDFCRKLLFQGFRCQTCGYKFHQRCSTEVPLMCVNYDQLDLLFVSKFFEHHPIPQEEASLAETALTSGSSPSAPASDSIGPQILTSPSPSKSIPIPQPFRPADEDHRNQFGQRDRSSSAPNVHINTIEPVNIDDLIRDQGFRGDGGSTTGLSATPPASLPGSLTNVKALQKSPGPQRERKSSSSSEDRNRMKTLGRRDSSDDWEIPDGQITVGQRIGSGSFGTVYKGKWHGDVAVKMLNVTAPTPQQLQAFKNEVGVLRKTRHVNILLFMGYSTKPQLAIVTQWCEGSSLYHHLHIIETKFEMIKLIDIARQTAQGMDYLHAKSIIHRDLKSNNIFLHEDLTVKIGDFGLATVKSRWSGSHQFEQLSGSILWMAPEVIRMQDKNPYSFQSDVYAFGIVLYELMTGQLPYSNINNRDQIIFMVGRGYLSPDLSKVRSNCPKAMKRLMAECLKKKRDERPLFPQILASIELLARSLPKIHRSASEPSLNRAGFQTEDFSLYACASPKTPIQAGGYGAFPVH
From the text: AlphaScreen assay was used to screen additional kinases. The assay is similarly dependent on the phosphorylation of a peptide substrate. In this assay, an antibody that recognizes phosphorylated substrate is bound to an acceptor bead. The peptide substrate is attached to biotin, which binds to a donor head that contains streptavidin. Thus phosphorylated substrate is bound by antibody and streptavidin, bringing the donor and acceptor heads into close proximity when kinase is not inhibited. The donor produces singlet oxygen which results in emission from the acceptor when they are in close proximity. Conversely, when kinase is inhibited, the donor and acceptor beads are not associated and the emission from the acceptor is reduced.
AlphaScreen assays were done using compounds dissolved in DMSO to a concentration of 20 mM. The compounds were diluted accordingly to the desired final concentrations in each sample well, using 1:3 serial dilution for a total of 8 concentration points. Plates were prepared such that each kinase reaction is 20 μl in 1× kinase buffer, 5% DMSO and 10 μM ATP. After incubation of the kinase reaction for 1 hour at room temperature, 5 μl of donor beads in stop buffer (50 mM EDTA in 1× kinase buffer) was added, the sample was mixed and incubated for 20 minutes at room temperature before adding 5 μl of acceptor beads in stop buffer. The samples were incubated for 60 minutes at room temperature and the signal per well was read on AlphaQuest reader.

Measured: IC50

T1 sequence (P07333 20-972): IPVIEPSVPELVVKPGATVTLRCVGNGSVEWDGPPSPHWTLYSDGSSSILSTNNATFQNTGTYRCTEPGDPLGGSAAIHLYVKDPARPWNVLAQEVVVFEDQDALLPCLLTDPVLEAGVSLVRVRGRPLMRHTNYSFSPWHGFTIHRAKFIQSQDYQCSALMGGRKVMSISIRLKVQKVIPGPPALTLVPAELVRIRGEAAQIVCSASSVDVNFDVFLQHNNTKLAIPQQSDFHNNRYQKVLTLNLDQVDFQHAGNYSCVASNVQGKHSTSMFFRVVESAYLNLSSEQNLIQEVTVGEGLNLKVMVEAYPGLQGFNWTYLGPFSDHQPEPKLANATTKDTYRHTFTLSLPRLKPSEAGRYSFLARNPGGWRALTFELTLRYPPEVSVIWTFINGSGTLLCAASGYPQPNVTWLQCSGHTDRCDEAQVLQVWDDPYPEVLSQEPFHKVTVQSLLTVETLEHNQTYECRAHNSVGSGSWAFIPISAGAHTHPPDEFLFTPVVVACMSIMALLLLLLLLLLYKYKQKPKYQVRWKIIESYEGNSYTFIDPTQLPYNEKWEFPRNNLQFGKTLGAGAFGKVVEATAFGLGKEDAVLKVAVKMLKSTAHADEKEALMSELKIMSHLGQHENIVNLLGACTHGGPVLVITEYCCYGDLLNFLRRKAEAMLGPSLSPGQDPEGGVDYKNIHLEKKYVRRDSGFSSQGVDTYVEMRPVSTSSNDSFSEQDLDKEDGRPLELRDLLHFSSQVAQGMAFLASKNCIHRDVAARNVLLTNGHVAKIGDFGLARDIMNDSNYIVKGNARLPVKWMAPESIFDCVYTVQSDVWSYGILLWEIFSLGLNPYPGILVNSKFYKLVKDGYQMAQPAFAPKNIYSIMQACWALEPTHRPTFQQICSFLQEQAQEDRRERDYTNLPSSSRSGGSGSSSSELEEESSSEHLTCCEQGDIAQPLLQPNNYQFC

COc1ccc(NC(=O)Nc2cccc(C(=O)c3c[nH]c4ncccc34)c2)cn1 [Compound P-1763, 1-(6-Methoxy-pyridin-3-yl)-3-[3-(1H-pyrrolo[2,3-b]pyridine-3-carbonyl)-phenyl]-urea]
≤ 10 µM: all assays above

COc1ccc(-c2cnc3[nH]cc(C(=O)c4c(F)ccc(NS(=O)(=O)c5cccc(F)c5)c4F)c3c2)cn1 [Compound P-2012, N-{2,4-Difluoro-3-[5-(6-methoxy-pyridin-3-yl)-1H-pyrrolo[2,3-b]pyridine-3-carbonyl]-phenyl}-3-fluoro-benzenesulfonamide]
≤ 10 µM: all assays above

O=C(Nc1cccc(C(=O)c2c[nH]c3ncccc23)c1)Nc1cccc(C(F)(F)F)c1 [Compound P-1746, 1-[3-(1H-Pyrrolo[2,3-b]pyridine-3-carbonyl)-phenyl]-3-(3-trifluoromethyl-phenyl)-urea]
≤ 10 µM: all assays above

O=C(Nc1cccc(F)c1)Nc1cccc(C(=O)c2c[nH]c3ncc(-c4ccc(F)cc4)cc23)c1 [Compound P-1819, 1-(3-Fluoro-phenyl)-3-{3-[5-(4-fluoro-phenyl)-1H-pyrrolo[2,3-b]pyridine-3-carbonyl]-phenyl}-urea]
≤ 10 µM: all assays above

N#Cc1ccc(S(=O)(=O)Nc2cccc(C(=O)c3c[nH]c4ncccc34)c2)cc1 [Compound P-1701]
≤ 10 µM: all assays above

COc1cc(NC(=O)Nc2cccc(C(=O)c3c[nH]c4ncc(Cl)cc34)c2)cc(C(F)(F)F)c1 [Compound P-1773, 1-[3-(5-Chloro-1H-pyrrolo[2,3-b]pyridine-3-carbonyl)-phenyl]-3-(3-methoxy-5-trifluoromethyl-phenyl)-urea]
≤ 10 µM: all assays above

COc1ccc(NC(=O)Nc2cccc(C(=O)c3c[nH]c4ncc(-c5ccc(F)cc5)cc34)c2)cc1OC [Compound P-1818, 1-(3,4-Dimethoxy-phenyl)-3-{3-[5-(4-fluoro-phenyl)-1H-pyrrolo[2,3-b]pyridine-3-carbonyl]-phenyl}-urea]
≤ 10 µM: all assays above

O=C(Nc1cccc(C(=O)c2c[nH]c3ncc(Cl)cc23)c1)Nc1ccc(F)c(F)c1 [Compound P-1735, 1-[3-(5-Chloro-1H-pyrrolo[2,3-b]pyridine-3-carbonyl)-phenyl]-3-(3,4-difluoro-phenyl)-urea]
≤ 10 µM: all assays above

O=C(c1cc(NS(=O)(=O)c2cccc(F)c2)ccc1F)c1c[nH]c2ncc(Cl)cc12 [Compound P-1665]
≤ 10 µM: all assays above

O=C(Nc1cccc(Cl)c1)Nc1cccc(C(=O)c2c[nH]c3ncc(Cl)cc23)c1 [Compound P-1736, 1-(3-Chloro-phenyl)-3-[3-(5-chloro-1H-pyrrolo[2,3-b]pyridine-3-carbonyl)-phenyl]-urea]
≤ 10 µM: all assays above

O=C(Nc1cccc(C(=O)c2c[nH]c3ncc(-c4ccc(F)cc4)cc23)c1)Nc1ccc(F)c(F)c1 [Compound P-1817, 1-(3,4-Difluoro-phenyl)-3-{3-[5-(4-fluoro-phenyl)-1H-pyrrolo[2,3-b]pyridine-3-carbonyl]-phenyl}-urea]
≤ 10 µM: all assays above

Cc1cccc(NC(=O)Nc2cccc(C(=O)c3c[nH]c4ncc(-c5ccc(F)cc5)cc34)c2)c1 [Compound P-1758, 1-{3-[5-(4-Fluoro-phenyl)-1H-pyrrolo[2,3-b]pyridine-3-carbonyl]-phenyl}-3-m-tolyl-urea]
≤ 10 µM: all assays above

COC(=O)c1ccc(S(=O)(=O)Nc2ccc(F)c(C(=O)c3c[nH]c4ncc(Cl)cc34)c2F)o1 [Compound P-1907, 5-[3-(5-Chloro-1H-pyrrolo[2,3-b]pyridine-3-carbonyl)-2,4-difluoro-phenylsulfamoyl]-furan-2-carboxylic acid methyl ester]
≤ 10 µM: all assays above

O=C(Nc1cccc(Cl)c1)Nc1cccc(C(=O)c2c[nH]c3ncccc23)c1 [Compound P-1710, 1-(3-Chloro-phenyl)-3-[3-(1H-pyrrolo[2,3-b]pyridine-3-carbonyl)-phenyl]-urea]
≤ 10 µM: all assays above

O=C(Nc1cccnc1)Nc1cccc(C(=O)c2c[nH]c3ncccc23)c1 [Compound P-1781, 1-Pyridin-3-yl-3-[3-(1H-pyrrolo[2,3-b]pyridine-3-carbonyl)-phenyl]-urea]
≤ 10 µM: all assays above

O=C(c1c(F)ccc(NS(=O)(=O)c2ccc(OC(F)F)cc2)c1F)c1c[nH]c2ncc(Cl)cc12 [Compound P-1916, N-[3-(5-Chloro-1H-pyrrolo[2,3-b]pyridine-3-carbonyl)-2,4-difluoro-phenyl]-4-difluoromethoxy-benzenesulfonamide]
≤ 10 µM: all assays above

COCCNC(=O)Nc1cccc(C(=O)c2c[nH]c3ncc(Cl)cc23)c1 [Compound P-1772, 1-[3-(5-Chloro-1H-pyrrolo[2 3-b]pyridine-3-carbonyl)-phenyl]-3-(2-methoxy-ethyl)-urea]
≤ 10 µM: all assays above

CN(C)c1ccc(NC(=O)Nc2cccc(C(=O)c3c[nH]c4ncc(Cl)cc34)c2)cc1 [Compound P-1782, 1-[3-(5-Chloro-1H-pyrrolo[2,3-b]pyridine-3-carbonyl)-phenyl]-3-(4-dimethylamino-phenyl)-urea]
≤ 10 µM: all assays above

O=C(c1c(F)ccc(NS(=O)(=O)c2ccccc2F)c1F)c1c[nH]c2ncc(Cl)cc12 [Compound P-1912, N-[3-(5-Chloro-1H-pyrrolo[2,3-b]pyridine-3-carbonyl)-2,4-difluoro-phenyl]-2-fluoro-benzenesulfonamide]
≤ 10 µM: all assays above

COc1cnc2[nH]cc(C(=O)c3cc(NS(=O)(=O)c4cccc(F)c4)ccc3Cl)c2c1 [Compound P-1664]
≤ 10 µM: all assays above

COc1cnc2[nH]cc(Cc3c(F)ccc(OCc4ccccc4)c3F)c2c1 [Compound P-1804, 3-(3-Benzyloxy-2,6-difluoro-benzyl)-5-methoxy-1H-pyrrolo[2,3-b]pyridine]
≤ 10 µM: all assays above

O=C(Nc1cccc(Cl)c1)Nc1cccc(C(=O)c2c[nH]c3ncc(-c4cccnc4)cc23)c1 [Compound P-1726, 1-(3-Chloro-phenyl)-3-[3-(5-pyridin-3-yl-1H-pyrrolo[2,3-b]pyridine-3-carbonyl)-phenyl]-urea]
≤ 10 µM: all assays above

COc1ccc(NC(=O)Nc2cccc(C(=O)c3c[nH]c4ncc(Cl)cc34)c2)cc1 [Compound P-1734, 1-[3-(5-Chloro-1H-pyrrolo[2,3-b]pyridine-3-carbonyl)-phenyl]-3-(4-methoxy-phenyl)-urea]
≤ 10 µM: all assays above

O=C(Nc1cccc(C(=O)c2c[nH]c3ncc(Cl)cc23)c1)Nc1cccc(C(F)(F)F)c1 [Compound P-1747, 1-[3-(5-Chloro-1H-pyrrolo[2,3-b]pyridine-3-carbonyl)-phenyl]-3-(3-trifluoromethyl-phenyl)-urea]
≤ 10 µM: all assays above

CN(C)c1ccc(NC(=O)Nc2cccc(C(=O)c3c[nH]c4ncccc34)c2)cc1 [Compound P-1780, 1-(4-Dimethylamino-phenyl)-3-[3-(1H-pyrrolo[2,3-b]pyridine-3-carbonyl)-phenyl]-urea]
≤ 10 µM: all assays above

O=C(c1c(F)ccc(NS(=O)(=O)c2ccc(-c3ccccn3)s2)c1F)c1c[nH]c2ncc(Cl)cc12 [Compound P-1800, 5-Pyridin-2-yl-thiophene-2-sulfonic acid [3-(5-chloro-1H-pyrrolo[2,3-b]pyridine-3-carbonyl)-2,4-difluoro-phenyl]-amide]
≤ 10 µM: all assays above

O=C(Nc1cccnc1)Nc1cccc(C(=O)c2c[nH]c3ncc(Cl)cc23)c1 [Compound P-1771, 1-[3-(5-Chloro-1H-pyrrolo[2,3-b]pyridine-3-carbonyl)-phenyl]-3-pyridin-3-yl-urea]
≤ 10 µM: all assays above

O=C(Nc1ccc(C(F)(F)F)cc1)Nc1cccc(C(=O)c2c[nH]c3ncccc23)c1 [Compound P-1717, 1-[3-(1H-Pyrrolo[2,3-b]pyridine-3-carbonyl)-phenyl]-3-(4-trifluoromethyl-phenyl)-urea]
≤ 10 µM: all assays above

O=C(c1c(F)ccc(NS(=O)(=O)c2cc3ccccc3s2)c1F)c1c[nH]c2ncc(Cl)cc12 [Compound P-1799, Benzo[b]thiophene-2-sulfonic acid [3-(5-chloro-1H-pyrrolo[2,3-b]pyridine-3-carbonyl)-2,4-difluoro-phenyl]-amide]
≤ 10 µM: all assays above

CCCCOc1ccc(NC(=O)Nc2cccc(C(=O)c3c[nH]c4ncccc34)c2)cc1 [Compound P-1715, 1-(4-Butoxy-phenyl)-3-[3-(1H -pyrrolo[2,3-b]pyridine-3-carbonyl)-phenyl]-urea]
≤ 10 µM: all assays above

O=C(Nc1ccc(F)cc1)Nc1cccc(C(=O)c2c[nH]c3ncc(-c4ccc(F)cc4)cc23)c1 [Compound P-1816, 1-(4-Fluoro-phenyl)-3-{3-[5-(4-fluoro-phenyl)-1H-pyrrolo[2,3-b]pyridine-3-carbonyl]-phenyl}-urea]
≤ 10 µM: all assays above

Source: patent publication US8415469B2, “Compounds and methods for kinase modulation, and indications therefor” (Plexxikon Inc., priority 2005, dated 2013)
